Source: US6814319B2, “Laboratory scale milling process” (Pharmacia & Upjohn Company, priority 2000, dated 2004)

Key:
Type in all cases: physicochemical
[1] = D50 particle size of milled drug, turbidimetry; details: size detection by turbidimetry; after magnetic stir-bar milling, parameters of Table 2
Source text: (§1) Valdecoxib, linezolid, phenytoin, griseofulvin and carbamazepine were milled according to the general procedure described for celecoxib in Example 1.

[2] = D50 particle size of milled drug, optical microscopy; details: size detection by optical microscopy; after magnetic stir-bar milling, parameters of Table 2
Source text: as §1

[3] = D50 particle size of milled drug, X-ray diffraction; details: size detection by X-ray diffraction; after magnetic stir-bar milling, parameters of Table 2
Source text: as §1

Row | SMILES | D50 (nm) [1] | D50 (nm) [2] | D50 (nm) [3]
1 | NC(=O)N1c2ccccc2C=Cc2ccccc21 [Carbamazepine] | 2500^1 nm | – | 2600^3 nm
2 | COC1=CC(=O)C[C@@H](C)[C@]12Oc1c(Cl)c(OC)cc(OC)c1C2=O [Griseofulvin] | 250^1 nm | – | 160^3 nm

Results, then the molecule that gave them:

Row | D50 (nm) [1] | D50 (nm) [2] | D50 (nm) [3] | SMILES
3 | 460^1 nm | – | – | Cc1onc(-c2ccccc2)c1-c1ccc(S(N)(=O)=O)cc1 [Valdecoxib]
4 | 1900^1 nm | 1000^2 nm | – | CC(=O)NC[C@H]1CN(c2ccc(N3CCOCC3)c(F)c2)C(=O)O1 [Linezolid]
5 | 200^1 nm | – | 130^3 nm | O=C1NC(=O)C(c2ccccc2)(c2ccccc2)N1 [Phenytoin]
